# Test results taken from publication PMC12199414, “A Self‐Assembling LYTAC Mediates CTGF Degradation and Remodels Inflammatory Tumor Microenvironment for Triple‐Negative Breast Cancer Therapy” (Advanced Science, 2025).
# Residues, ends and D or L forms follow the SMILES beside them. No end group written: not given here.
# T1: rhCTGF‐His tag protein (Homo sapiens, UniProt P29279)
# T1 construct: purchased Novoprotein C15W
# T1 sequence (P29279 27-349): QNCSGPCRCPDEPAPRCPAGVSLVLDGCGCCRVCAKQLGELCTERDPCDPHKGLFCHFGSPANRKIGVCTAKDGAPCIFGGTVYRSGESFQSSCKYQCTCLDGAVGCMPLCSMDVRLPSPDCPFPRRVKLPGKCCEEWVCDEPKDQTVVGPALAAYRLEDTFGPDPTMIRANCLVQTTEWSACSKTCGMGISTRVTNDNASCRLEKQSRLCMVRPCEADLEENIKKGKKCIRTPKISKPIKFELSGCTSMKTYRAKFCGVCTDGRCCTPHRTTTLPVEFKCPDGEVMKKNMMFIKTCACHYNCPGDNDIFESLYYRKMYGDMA
# T2: TSP proteins (C-terminal domain of CTGF) (Homo sapiens, UniProt P29279)
# T2 sequence (P29279 198-243 limits assumed): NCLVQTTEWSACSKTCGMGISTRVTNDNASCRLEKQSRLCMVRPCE
# T3: CCN1 (Homo sapiens, UniProt O00622)
# T3 sequence (O00622 25-381): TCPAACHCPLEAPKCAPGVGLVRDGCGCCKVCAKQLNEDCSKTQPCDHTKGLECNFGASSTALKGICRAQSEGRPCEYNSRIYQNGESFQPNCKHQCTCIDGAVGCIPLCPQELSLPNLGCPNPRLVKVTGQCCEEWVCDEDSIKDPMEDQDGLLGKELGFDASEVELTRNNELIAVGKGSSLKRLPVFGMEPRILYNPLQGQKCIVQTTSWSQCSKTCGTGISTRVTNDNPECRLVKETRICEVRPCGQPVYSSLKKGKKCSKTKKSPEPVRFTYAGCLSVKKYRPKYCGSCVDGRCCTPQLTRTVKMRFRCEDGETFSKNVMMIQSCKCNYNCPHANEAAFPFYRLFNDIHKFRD
# T4: CCN3 (Homo sapiens, UniProt P48745)
# T4 sequence (P48745 32-357): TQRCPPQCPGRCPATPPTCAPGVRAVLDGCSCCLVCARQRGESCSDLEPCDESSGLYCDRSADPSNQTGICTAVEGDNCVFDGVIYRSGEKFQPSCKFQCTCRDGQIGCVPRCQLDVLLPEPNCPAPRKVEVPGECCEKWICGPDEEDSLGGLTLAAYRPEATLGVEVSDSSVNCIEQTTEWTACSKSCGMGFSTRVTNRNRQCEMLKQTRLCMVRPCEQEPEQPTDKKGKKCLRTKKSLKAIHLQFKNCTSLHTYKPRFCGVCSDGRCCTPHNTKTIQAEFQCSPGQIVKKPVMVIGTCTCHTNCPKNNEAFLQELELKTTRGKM
# T5: CCN4 (Homo sapiens, UniProt O95388)
# T5 sequence (O95388 23-367): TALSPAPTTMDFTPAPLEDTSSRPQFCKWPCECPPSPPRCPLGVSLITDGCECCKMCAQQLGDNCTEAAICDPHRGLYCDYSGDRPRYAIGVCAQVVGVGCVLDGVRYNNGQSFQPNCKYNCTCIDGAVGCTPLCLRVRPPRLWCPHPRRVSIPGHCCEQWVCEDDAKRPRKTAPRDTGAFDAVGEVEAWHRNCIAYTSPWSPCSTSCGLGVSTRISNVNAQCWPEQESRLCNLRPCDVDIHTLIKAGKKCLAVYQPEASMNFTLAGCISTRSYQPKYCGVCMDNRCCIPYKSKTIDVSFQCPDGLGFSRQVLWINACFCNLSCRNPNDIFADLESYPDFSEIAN
# T6: CTGF (Homo sapiens, UniProt P29279)
# T6 construct: endogenous in cells; host or cells: BT549 and MDA-MB-231 (human TNBC cell lines)
# T6 sequence (P29279 27-349): T1 sequence (P29279 27-349)
# T7: recombinant human CTGF‐His tag (connective tissue growth factor) (human, UniProt P29279 27-349, labeled with fluorescent dye Monolith RED‐NHS)
# T7 construct: connective tissue growth factor (CTGF/CCN2), human, recombinant; also called CCN2; rhCTGF‐His tag protein; source: bought: Novoprotein (C15W), purified
# T7 sequence (looked up): T1 sequence (P29279 27-349)
# T8: recombinant human CTGF‐His tag (connective tissue growth factor) (human), P29279
# T8 chain: T1 sequence (P29279 27-349)
# How the values were obtained:
# rhCTGF‐His tag protein = target: T1, rhCTGF‐His tag protein; test: MicroScale Thermophoresis (MST) binding to CTGF; conditions: Monolith NT.115, protein labelled with Monolith RED-NHS, 2 × 10^−6 M protein, PBST buffer (PBS, 0.05% Tween-20)
# Protocol: (§1) The affinity between various peptides (CL8, CC14, LT12, CC14S, CE8, FH14S, FH14, and CL8‐M6P3) and purified rhCTGF‐His tag protein (C15W, Novoprotein), IGFBP protein, and TSP proteins, was evaluated using microscale thermophoresis (NanoTemper, Germany). Additionally, the interaction between CL8‐M6P3 and the CCN1, CCN3, and CCN4 proteins was measured using the Dianthus system (NanoTemper, Germany). Prior to measurements, the purified proteins were labeled with fluorescent dye Monolith RED‐NHS (MO‐L011, NanoTemper). For the MST assay, 2 × 10^−6 M proteins (10 µL) were added with variable concentrations of the above peptides in PBST buffer (10 µL, PBS containing 0.05% Tween‐20). After a short incubation, the mixture was loaded into the Monolith NT.115 capillary (MO‐K022, NanoTemper) and analyzed using the Monolith NT.115 (NanoTemper, Germany).
# red blood cells = test: Hemolysis assay; assay type: cell-based, mice; conditions: mouse erythrocytes, 0-30 × 10^−6 M, 1 h, 37 °C, absorbance 570 nm
# Protocol: The hemolytic activities of CL8, CL8‐M6P3, and NanoCLY were determined by monitoring hemoglobin release from red blood cells. Fresh erythrocytes were obtained from the whole blood of mice by centrifugation (1000 × g for 30 min at 4 °C), and washed three times with cold 0.9% NaCl. The erythrocytes were dispensed into 96‐well plates, incubated with CL8, CL8‐M6P3 and NanoCLY at specified concentrations (0, 0.3, 1, 3, 10, and 30 × 10^−6 M) for 1 h at 37 °C, centrifuged at 1000 × g for 10 min, the supernatant samples were collected, and the absorbance at 570 nm was measured by microplate reader Cytation 5 (Biotek, USA). The negative control group was defined as the absorbance obtained in 1× PBS (A PBS), and 100% hemolysis in 0.1%Triton X‐100 (v/v) (A Triton). The hemolysis percentage was calculated as: (A peptide − A PBS)/(ATriton − A PBS) × 100%.
# [1] = target: IGFBP protein (N-terminal domain of CTGF) (Homo sapiens, UniProt P29279); test: MST binding to IGFBP domain of CTGF; conditions: Figure S6b
# Protocol: as §1
# [2] = target: T2, TSP proteins (C-terminal domain of CTGF); test: MST binding to TSP domain of CTGF; conditions: Figure S6c
# Protocol: as §1
# CCN1 = target: T3, CCN1; test: Binding to CCN1 (Dianthus system); conditions: Figure S7a
# Protocol: as §1
# CCN3 = target: T4, CCN3; test: Binding to CCN3 (Dianthus system); conditions: Figure S7a
# Protocol: as §1
# CCN4 = target: T5, CCN4; test: Binding to CCN4 (Dianthus system); conditions: Figure S7a
# Protocol: as §1
# CTGF = target: T6, CTGF; test: ELISA of extracellular CTGF in culture media of TNBC cells; assay type: cell-based; conditions: in vitro, BT549 and MDA-MB-231 culture media, 12 h
# Protocol: BT549 and MDA‐MB‐231 cells were treated with various concentrations of CL8‐M6P3 or NanoCLY for 12 h. Extracellular CTGF protein level in conditioned media was quantified by a human CTGF ELISA kit following the manufacturer's instructions (ab261851, Abcam and CSB‐E07875h, Cusabio). Extracellular CCN1, CCN3, and CCN4 protein levels were quantified using respective ELISA kits (HY‐P7842, HY‐P701327, HY‐P78051, MCE) following the manufacturer's instructions (CSB‐EL015956HU, CSB‐EL026119HU, CSB‐E13884h, Cusabio). Additionally, BSP and β‐CTx levels in serum were quantified by ELISA kit following the manufacturer's instructions (BPE10823, BPE10438, lengton).
# [3] = target: T7, recombinant human CTGF‐His tag …; test: MST; proteins labeled with Monolith RED-NHS; 2 × 10^-6 M protein (10 µL) mixed with variable concentrations of peptide in PBST (10 µL, PBS with 0.05% Tween-20); Monolith NT.115; conditions: both partners purified
# [4] = target: T8, recombinant human CTGF‐His tag …; test: as above
molecule,measurement,setting,value
"CC(C)C[C@H](NC(=O)[C@H](Cc1ccc(O)cc1)NC(=O)[C@H](Cc1c[nH]cn1)NC(=O)[C@H](C)NC(=O)[C@H](C)NC(=O)[C@H](CO)NC(=O)[C@@H]1CCCN1C(=O)[C@@H](N)CS)C(N)=O [CL8, reference compound] (H-CPSAAHYL-NH2)",Kd,rhCTGF‐His tag protein,1230 nM
same,hemolysis safety,red blood cells,good hemolysis safety
"H-CPSAAHYL-PEG3-[Pra(M6P)βAla]3-NH2 [CL8‐M6P3, peptide-based CTGF-LYTAC: CL8 conjugated to glycopeptide scaffold M6P3 by a PEG3 linker]",interaction with IGFBP domain of CTGF,[1],interacts
same,interaction with TSP domain of CTGF,[2],interacts
same,binding interaction with CCN1,CCN1,no binding interactions
same,binding interaction with CCN3,CCN3,no binding interactions
same,binding interaction with CCN4,CCN4,no binding interactions
same,extracellular CTGF degraded,CTGF,≈ 50%
same,hemolysis safety,red blood cells,good hemolysis safety
CPSAAHYL (not fully specified (C-terminus)) [CL8‐M6P3],Kd,[3],13400 nM
CPSAAHYL (modifications not checked) [CL8 peptide],Kd,[4],1230 nM
